These results are taken from US20260356860A1, “2-SUBSTITUTED 3,4A,5,7,8,8A-HEXAHYDRO-4H-THIOPYRANO[4,3-DJPYRIMIDIN-4-ONES FOR WOUND TREATMENT” (priority 2022, published 2026).

In this experiment the test system is HEK293 SuperTOPFlash reporter cells, Wnt promoter. Nature of the experiment: HEK CELL Wnt Assay (luciferase reporter). Type of experiment: cell-based. The following applies: serial dilutions, with or without 50 ng/mL Wnt3a; 18 h. The procedure: In order to determine the effect of the compounds of Formula (I) on Wnt inhibition, an in vitro assay using HEK293 SuperTOPFlash reporter cells, with the Wnt promoter driving a luciferase reporter gene, were utilized. 40,000 HEK293 SuperTOPFlash reporter cells were seeded, per well, in a 48 well plate for 24 hours, prior to administration of serial dilutions of the compound of Formula (I) to individual wells. Serial dilutions ranging from […] to 1 nM of the compound of Formula (I) were added with or without 50 ng/mL Wnt3a (Time Biosciences) and allowed to incubate with the reporter cells for 18 hours. Reporter cells with no treatment were used as negative control.
Usually IC50 stands for the concentration needed to halve the response being measured. The low end stands for greater potency in that assay, the high end for weaker potency in that assay. `O=c1[nH]c(/C=C/c2ccc(C(F)(F)F)c(B(O)O)c2)nc2c1CSCC2` [Compound 5, (E)-(5-(2-(4-oxo-3,5,7,8-tetrahydro-4H-thiopyrano[4,3-d]pyrimidin-2-yl)vinyl)-2-(trifluoromethyl)phenyl)boronic acid] had an IC50 of 5 µM. Compound `[2H]C1([2H])CSCc2c1nc(-c1ccc(C(F)(F)F)cc1)[nH]c2=O` [Compound 13, 2-(4-(trifluoromethyl)phenyl)-3,5,7,8-tetrahydro-4H-thiopyrano[4,3-d]pyrimidin-4-one-8,8-d2] came in with an IC50 of 0.004 µM. `N#Cc1ccc(-c2nc3c(c(=O)[nH]2)CSCC3)cc1` [Compound 43, 4-(4-oxo-3,5,7,8-tetrahydro-4H-thiopyrano[4,3-d]pyrimidin-2-yl)benzonitrile] returned an IC50 of 1 µM.
